{"source": "patent US10357589B2", "about": "“One component fibrin glue comprising a polymerization inhibitor” (Omrix Biopharmaceuticals Ltd., priority 2013, dated 2019)", "key": {"[1]": {"test_system": "fibrin monomers", "experiment": "Time to clot of GPRP peptide:fibrin monomers mixture (cessation of flow when inverting the tube)", "assay_type": "biochemical", "experimental": "A mixture of GPRP peptide:fibrin monomers was prepared as follows:\nFibrinogen final concentration used was 1%, 1.5%, 3%, 3.5%. A BAC2 solution [fibrinogen component of EVICEL®] containing 7% clottable fibrinogen was diluted in 20 mM sodium acetate (NaAcetate) buffer, pH 7.0 to obtain the final listed concentrations.\nTo form fibrin, thrombin (as in EVICEL® Fibrin Sealant) was added to the fibrinogen solution at a final concentration of 10 IU/ml or 100 IU/ml and then the time to clot was recorded. Clotting was assessed by cessation of flow when inverting the tube.\nThe fibrin monomer concentration was estimated as being equal to the fibrinogen concentration.\nAll of these (having a ratio of at most 57:1) are below the minimal ratio required for long term stabilization of fibrin monomers. The GPRP:fibrin solution was prepared as described above (by adding a GPRP peptide into a fibrinogen solution and adding thrombin into the GPRP:fibrinogen mix). Next, the time to clotting was recorded as above."}, "[2]": {"test_system": "fibrin monomers", "experiment": "Time to clot of GPRP peptide:fibrin monomers mixture (cessation of flow when inverting the tube)", "assay_type": "biochemical", "settings": "1% fibrin monomers, thrombin 10 or 100 IU/ml"}}, "note": "Entries after “also recorded” stand apart in the source; their conditions may differ.", "data": [{"substance": "Gly-Pro-Arg-Pro [GPRP]", "values": [{"measurement": "Time to clot", "setting": "[1]; 1% fibrin monomers, 0.1 mM GPRP, GPRP:fibrin 3.4 fold, thrombin 10 or 100 IU/ml", "result": "immediately; also recorded: Immediate"}, {"measurement": "Time to clot", "setting": "[1]; 3% fibrin monomers, 0.1 mM GPRP, GPRP:fibrin 1.1 fold", "result": 5, "unit": "s"}, {"measurement": "Time to clot", "setting": "[1]; 3% fibrin monomers, 0.2 mM GPRP, GPRP:fibrin 2.3 fold", "result": 7, "unit": "s"}, {"measurement": "Time to clot", "setting": "[1]; 3% fibrin monomers, 0.5 mM GPRP, GPRP:fibrin 5.7 fold", "result": 11, "unit": "s"}, {"measurement": "Time to clot", "setting": "[1]; 3% fibrin monomers, 1 mM GPRP, GPRP:fibrin 11.3 fold", "result": 13, "unit": "s"}, {"measurement": "Time to clot", "setting": "[1]; 3% fibrin monomers, 1.5 mM GPRP, GPRP:fibrin 17 fold", "result": 22, "unit": "s"}, {"measurement": "Time to clot", "setting": "[1]; 3% fibrin monomers, 2 mM GPRP, GPRP:fibrin 22.7 fold", "result": 28, "unit": "s"}, {"measurement": "Time to clot", "setting": "[1]; 3% fibrin monomers, 3 mM GPRP, GPRP:fibrin 34 fold", "result": 150, "unit": "s"}, {"measurement": "Time to clot", "setting": "[1]; 3% fibrin monomers, 4 mM GPRP, GPRP:fibrin 45 fold", "result": 480, "unit": "s"}, {"measurement": "Time to clot", "setting": "[1]; 3% fibrin monomers, 5 mM GPRP, GPRP:fibrin 56.7 fold", "result": 900, "unit": "s"}, {"measurement": "Time to clot", "setting": "[2]; 5 mM GPRP, GPRP:fibrin 170 fold", "result": 4, "unit": "h"}, {"measurement": "Time to clot", "setting": "[2]; 10 mM GPRP, GPRP:fibrin 340 fold", "result": "170 to 190", "unit": "h"}]}]}
